Here are results for 41 compounds from ChEMBL document CHEMBL4020842, “Discovery of N1-(4-((7-Cyclopentyl-6-(dimethylcarbamoyl)-7 H-pyrrolo[2,3- d]pyrimidin-2-yl)amino)phenyl)- N8-hydroxyoctanediamide as a Novel Inhibitor Targeting Cyclin-dependent Kinase 4/9 (CDK4/9) and Histone Deacetlyase1 (HDAC1) against Malignant Cancer” (J Med Chem, 2018).

The structures appear in SMILES notation.

One assay concerns the target CDK4/Cyclin D3 (Homo sapiens, UniProt P11802). Nature of the assay: Inhibition of recombinant human full length N-terminal GST-tagged CDK4/Cyclin-D3 co-expressed in baculovirus infected sf21 cells using Rb substrate in presence of [gamma33P]ATP after 10 mins by scintillation counting method.
For assay [1], the target named is T1, Histone deacetylase 1 (Homo sapiens, UniProt Q13547). Nature of the assay: Inhibition of HDAC1 (unknown origin).
Assay [2] concerns the target T1, Histone deacetylase 1. Nature of the assay: Potency index, ratio of vorinostat IC50 to compound IC50 for HDAC1 (unknown origin).

CDK4/Cyclin D3, sequence (P11802 whole entry): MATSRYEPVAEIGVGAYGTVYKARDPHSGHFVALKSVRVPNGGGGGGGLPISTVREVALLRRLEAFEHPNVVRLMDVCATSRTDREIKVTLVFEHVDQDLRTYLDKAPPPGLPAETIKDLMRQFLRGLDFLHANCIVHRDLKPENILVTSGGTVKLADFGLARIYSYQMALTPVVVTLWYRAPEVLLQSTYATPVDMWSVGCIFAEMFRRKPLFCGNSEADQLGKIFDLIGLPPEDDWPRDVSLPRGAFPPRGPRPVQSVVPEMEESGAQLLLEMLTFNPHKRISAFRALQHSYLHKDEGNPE
CDK4/Cyclin D3, sequence (P30281 whole entry, further chain): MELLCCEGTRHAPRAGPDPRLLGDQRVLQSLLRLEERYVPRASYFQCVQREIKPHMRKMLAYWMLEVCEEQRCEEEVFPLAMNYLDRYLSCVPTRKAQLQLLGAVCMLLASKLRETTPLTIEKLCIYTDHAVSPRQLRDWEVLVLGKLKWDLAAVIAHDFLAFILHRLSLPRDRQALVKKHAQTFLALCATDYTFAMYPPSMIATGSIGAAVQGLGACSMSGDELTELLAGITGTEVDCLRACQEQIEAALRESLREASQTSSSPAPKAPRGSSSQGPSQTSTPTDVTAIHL
T1 sequence (Q13547 whole entry): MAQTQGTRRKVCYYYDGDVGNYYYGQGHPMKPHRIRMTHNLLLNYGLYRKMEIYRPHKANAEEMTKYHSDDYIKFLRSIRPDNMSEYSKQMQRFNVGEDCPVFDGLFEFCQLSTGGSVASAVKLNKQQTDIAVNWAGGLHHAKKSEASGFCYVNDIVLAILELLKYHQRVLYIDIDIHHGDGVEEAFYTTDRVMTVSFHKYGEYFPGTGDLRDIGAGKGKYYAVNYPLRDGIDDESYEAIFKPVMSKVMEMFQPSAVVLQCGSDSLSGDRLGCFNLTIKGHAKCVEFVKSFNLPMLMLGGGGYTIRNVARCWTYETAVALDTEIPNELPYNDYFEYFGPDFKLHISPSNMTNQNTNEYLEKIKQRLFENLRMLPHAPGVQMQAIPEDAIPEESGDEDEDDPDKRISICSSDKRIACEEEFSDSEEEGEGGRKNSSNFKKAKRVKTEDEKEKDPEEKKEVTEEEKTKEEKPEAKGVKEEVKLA

In general, IC50 refers to the concentration that inhibits the measured activity by half. `COC(=O)CCCCCCC(=O)Nc1ccc(Nc2ncc3ncn(C4CCCC4)c3n2)cc1`: the IC50 on CDK4/Cyclin D3 and against Histone deacetylase 1 [1] was greater than 5 µM each time. Besides, the Ratio IC50 at Histone deacetylase 1 [2] is 10 to 100.

Consider `CCCCCCC(=O)Nc1ccc(Nc2ncc3cc(C(=O)N(C)C)n(C4CCCC4)c3n2)cc1`, for which, on CDK4/Cyclin D3, the IC50 was determined as 0.027 µM.

Take `CN(C)C(=O)c1cc2cnc(Nc3ccc(NC(=O)CCCCCCCO)cc3)nc2n1C1CCCC1`: the IC50 on CDK4/Cyclin D3 is 0.01 µM; at Histone deacetylase 1 [1], greater than 5 µM. The Ratio IC50 at Histone deacetylase 1 [2] was in the range of 10 to 100.

For `COC(=O)CCCCC(=O)Nc1ccc(Nc2ncc3cc(C(=O)N(C)C)n(C4CCCC4)c3n2)cc1`, the IC50 at CDK4/Cyclin D3 is 0.0048 µM.

With `COC(=O)CCCCCCC(=O)Nc1ccc(Nc2ncc3cc(C(=O)N(C)C)n(C4CCCC4)c3n2)cc1`, the half-maximal inhibitory concentration (IC50) is 0.012 µM on CDK4/Cyclin D3 and greater than 5 µM at Histone deacetylase 1 [1]. Also, the Ratio IC50 at Histone deacetylase 1 [2] was 10 to 100.

`CCCCCCCC(=O)Nc1ccc(Nc2ncc3cc(C(=O)N(C)C)n(C4CCCC4)c3n2)cc1`: on CDK4/Cyclin D3, the IC50 is 0.029 µM.

For `CN(C)C(=O)c1cc2cnc(Nc3ccc(NC(=O)NCCCCCC(=O)NO)cc3)nc2n1C1CCCC1`, the IC50 came out at 0.0084 µM on CDK4/Cyclin D3 and 0.0016 µM at Histone deacetylase 1 [1]. Besides, the Ratio IC50 on Histone deacetylase 1 [2] lay in the range of 10 to 100.

`COC(=O)CCCCCCNC(=O)c1ccc(Nc2ncc3cc(C(=O)N(C)C)n(C4CCCC4)c3n2)cc1`: the IC50 at CDK4/Cyclin D3 was found to be 0.011 µM.

Regarding `COC(=O)CCCCCCC(=O)Nc1ccccc1Nc1ncc2cc(C(=O)N(C)C)n(C3CCCC3)c2n1`, the IC50 at CDK4/Cyclin D3 is greater than 5 µM.

As for `CCCCCCCCC(=O)Nc1ccc(Nc2ncc3cc(C(=O)N(C)C)n(C4CCCC4)c3n2)cc1`, the concentration for half-maximal inhibition (IC50) at CDK4/Cyclin D3 was 0.123 µM.

Regarding `CN(C)C(=O)c1cc2cnc(Nc3ccc(NC(=O)CCCCC(=O)NO)cc3)nc2n1C1CCCC1`, the IC50 at CDK4/Cyclin D3 amounted to 0.011 µM; at Histone deacetylase 1 [1], 0.027 µM. Further, the Ratio IC50 on Histone deacetylase 1 [2] was in the range of 10 to 100.

Regarding `CN(C)C(=O)CCCCCCC(=O)Nc1ccc(Nc2ncc3cc(C(=O)N(C)C)n(C4CCCC4)c3n2)cc1`, the IC50 at CDK4/Cyclin D3 is 0.016 µM; against Histone deacetylase 1 [1], greater than 5 µM. Moreover, at Histone deacetylase 1 [2], the Ratio IC50 lay in the range of 10 to 100.

In the case of `CN(C)C(=O)c1cc2cnc(Nc3ccc(C(=O)NCCCCCCCC(=O)NO)cc3)nc2n1C1CCCC1`, the IC50 at CDK4/Cyclin D3 came to 0.026 µM; against Histone deacetylase 1 [1], 0.0016 µM. Besides, the Ratio IC50 on Histone deacetylase 1 [2] was in the range of 10 to 100.

With `CN(C)C(=O)c1cc2cnc(Nc3ccc(C(=O)NCCCCC(=O)NO)cc3)nc2n1C1CCCC1`, the IC50 at CDK4/Cyclin D3 is 0.011 µM.

On to `COC(=O)CCCCCCCNC(=O)c1ccc(Nc2ncc3cc(C(=O)N(C)C)n(C4CCCC4)c3n2)cc1`, for which the half-inhibitory concentration (IC50) at CDK4/Cyclin D3 was determined as 0.0082 µM.

`COC(=O)CCCCCCC(=O)Nc1ccc(Nc2ncc3nnn(C4CCCC4)c3n2)cc1`: the 50% inhibitory concentration (IC50) is 0.857 µM on CDK4/Cyclin D3 and greater than 5 µM against Histone deacetylase 1 [1]. Also, the Ratio IC50 at Histone deacetylase 1 [2] lay within 10 to 100.

On to `COC(=O)CCCCCCC(=O)NCc1ccc(Nc2ncc3cc(C(=O)N(C)C)n(C4CCCC4)c3n2)cc1`, for which the IC50 at CDK4/Cyclin D3 stood at 0.025 µM.

Take `COC(=O)CCCCCNC(=O)c1ccc(Nc2ncc3cc(C(=O)N(C)C)n(C4CCCC4)c3n2)cc1`: the IC50 on CDK4/Cyclin D3 stood at 0.0073 µM.

For the compound `CN(C)C(=O)c1cc2cnc(Nc3ccc(CNC(=O)CCCCCCC(=O)NO)cc3)nc2n1C1CCCC1`, the IC50 on CDK4/Cyclin D3 was 0.01 µM; at Histone deacetylase 1 [1], 0.053 µM. Also, the Ratio IC50 on Histone deacetylase 1 [2] was 10 to 100.

With `COC(=O)CCCCCCC(=O)Nc1ccc(Nc2ncc3cc(C(=O)N(C)C)n(C4CCCC4)c3n2)nc1`, the IC50 is 0.047 µM on CDK4/Cyclin D3 and greater than 5 µM on Histone deacetylase 1 [1]. In addition, the Ratio IC50 at Histone deacetylase 1 [2] lay in the range of 10 to 100.

`CN(C)C(=O)c1cc2cnc(Nc3ccc(NC(=O)CCCCCC(=O)NO)cc3)nc2n1C1CCCC1`: the IC50 on CDK4/Cyclin D3 amounted to 0.01 µM; on Histone deacetylase 1 [1] it was 0.00084 µM. The Ratio IC50 on Histone deacetylase 1 [2] lay within 10 to 100.

With `COC(=O)CCCCCNC(=O)Nc1ccc(Nc2ncc3cc(C(=O)N(C)C)n(C4CCCC4)c3n2)cc1`, the IC50 on CDK4/Cyclin D3 was found to be 0.023 µM.

Consider `COC(=O)CCCCCCC(=O)N1CCN(c2ccc(Nc3ncc4cc(C(=O)N(C)C)n(C5CCCC5)c4n3)nc2)CC1`, for which the IC50 was 0.013 µM at CDK4/Cyclin D3 and greater than 5 µM at Histone deacetylase 1 [1]. The Ratio IC50 on Histone deacetylase 1 [2] is 10 to 100.

Consider `CN(C)C(=O)c1cc2cnc(Nc3ccccc3NC(=O)CCCCCCC(=O)NO)nc2n1C1CCCC1`, for which the IC50 was greater than 5 µM at CDK4/Cyclin D3 and 0.037 µM on Histone deacetylase 1 [1]. Also, at Histone deacetylase 1 [2], the Ratio IC50 lay in the range of 10 to 100.

As for `COC(=O)CCCCCCC(=O)Nc1cccc(Nc2ncc3cc(C(=O)N(C)C)n(C4CCCC4)c3n2)c1`, at CDK4/Cyclin D3, the IC50 amounted to 0.026 µM.

Take `COC(=O)CCCCCCC(=O)NNc1ncc2cc(C(=O)N(C)C)n(C3CCCC3)c2n1`: the IC50 at CDK4/Cyclin D3 was greater than 5 µM.

`CN(C)C(=O)c1cc2cnc(Nc3ccc(C(=O)NCCCCCCC(=O)NO)cc3)nc2n1C1CCCC1`: the figures for the IC50 at CDK4/Cyclin D3 and against Histone deacetylase 1 [1] were 0.012 µM and 0.0014 µM, respectively. Moreover, the Ratio IC50 at Histone deacetylase 1 [2] lay within 10 to 100.

Take `O=C(CCCCCCC(=O)Nc1ccc(Nc2ncc3nnn(C4CCCC4)c3n2)cc1)NO`: the half-inhibitory concentration (IC50) turned out to be 1.14 µM on CDK4/Cyclin D3 and 0.433 µM against Histone deacetylase 1 [1]. Besides, the Ratio IC50 at Histone deacetylase 1 [2] lay within 10 to 100.

With `COC(=O)CCCCCCC(=O)Nc1ccc(Nc2ncc3cc(C(=O)N(C)C)n(C4CCCC4)c3n2)cn1`, on CDK4/Cyclin D3, the IC50 was determined as 0.016 µM.

Take `COC(=O)CCCCCCC(=O)Nc1ncc2cc(C(=O)N(C)C)n(C3CCCC3)c2n1`: the IC50 on CDK4/Cyclin D3 is greater than 5 µM.

With `O=C(CCCCCCC(=O)Nc1ccc(Nc2ncc3ncn(C4CCCC4)c3n2)cc1)NO`, the IC50 at CDK4/Cyclin D3 was greater than 5 µM; on Histone deacetylase 1 [1], 0.0026 µM. Also, the Ratio IC50 at Histone deacetylase 1 [2] was 10 to 100.

Regarding `COC(=O)CCCCCCCC(=O)Nc1ccc(Nc2ncc3cc(C(=O)N(C)C)n(C4CCCC4)c3n2)cc1`, the IC50 on CDK4/Cyclin D3 stood at 0.024 µM.

`CN(C)C(=O)c1cc2cnc(Nc3ccc(NC(=O)CCCCCCC(=O)NO)cn3)nc2n1C1CCCC1`: the IC50 at CDK4/Cyclin D3 was determined as 0.093 µM; against Histone deacetylase 1 [1], 0.423 µM. In addition, the Ratio IC50 on Histone deacetylase 1 [2] fell in the range of 10 to 100.

For `CN(C)C(=O)c1cc2cnc(Nc3ccc(N4CCN(C(=O)CCCCCCC(=O)NO)CC4)cn3)nc2n1C1CCCC1`, the IC50 on CDK4/Cyclin D3 turned out to be 0.013 µM; at Histone deacetylase 1 [1], 0.039 µM. In addition, the Ratio IC50 at Histone deacetylase 1 [2] lay in the range of 10 to 100.

On to `CN(C)C(=O)c1cc2cnc(Nc3ccc(C(=O)NCCCCCC(=O)NO)cc3)nc2n1C1CCCC1`, for which the IC50 came out at 0.0096 µM at CDK4/Cyclin D3 and 0.00053 µM against Histone deacetylase 1 [1]. Moreover, the Ratio IC50 at Histone deacetylase 1 [2] lay within 10 to 100.

Turning to `COC(=O)CCCCCC(=O)Nc1ccc(Nc2ncc3cc(C(=O)N(C)C)n(C4CCCC4)c3n2)cc1`, the IC50 on CDK4/Cyclin D3 was found to be 0.01 µM.

Regarding `COC(=O)CCCCNC(=O)c1ccc(Nc2ncc3cc(C(=O)N(C)C)n(C4CCCC4)c3n2)cc1`, on CDK4/Cyclin D3, the IC50 was found to be 0.0063 µM.

On to `CN(C)C(=O)c1cc2cnc(Nc3ccc(NC(=O)CCCCCCCC(=O)NO)cc3)nc2n1C1CCCC1`, for which the half-maximal inhibitory concentration (IC50) on CDK4/Cyclin D3 worked out at 0.0081 µM; on Histone deacetylase 1 [1], 0.003 µM. Also, on Histone deacetylase 1 [2], the Ratio IC50 was 10 to 100.

Turning to `CN(C)C(=O)c1cc2cnc(Nc3ccc(NC(=O)CCCCCCC(=O)O)cc3)nc2n1C1CCCC1`, the values for the IC50 at CDK4/Cyclin D3 and against Histone deacetylase 1 [1] were 0.018 µM and greater than 5 µM, respectively. Also, the Ratio IC50 at Histone deacetylase 1 [2] lay in the range of 10 to 100.

Turning to `CN(C)C(=O)c1cc2cnc(Nc3cccc(NC(=O)CCCCCCC(=O)NO)c3)nc2n1C1CCCC1`, the IC50 at CDK4/Cyclin D3 was 0.03 µM; against Histone deacetylase 1 [1], 0.00084 µM. In addition, the Ratio IC50 on Histone deacetylase 1 [2] lay within 10 to 100.

On to `CCCCCC(=O)Nc1ccc(Nc2ncc3cc(C(=O)N(C)C)n(C4CCCC4)c3n2)cc1`, for which the values for the IC50 at CDK4/Cyclin D3 and at Histone deacetylase 1 [1] were 0.01 µM and greater than 5 µM, respectively. Besides, on Histone deacetylase 1 [2], the Ratio IC50 lay within 10 to 100.
